Measurements reported in PubChem BioAssay (NCI).
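Growth conditions: 96-well plates. Treatment: test compound, 48 hours, 5 concentrations. Analysis: linear interpolation between bracketing concentrations; unreached endpoints set to highest concentration. TGI is the concentration that stops growth completely.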

Experiments:
Test in all cases: NCI anticancer screen, dose series, 48 h
MDA-MB-435 = system: MDA-MB-435
SK-OV-3 ovarian = system: SK-OV-3 ovarian
SK-MEL-28 melanoma = system: SK-MEL-28 melanoma
UACC-62 melanoma = system: UACC-62 melanoma
NCI-H460 lung = system: NCI-H460 lung
MDA-MB-231 breast = system: MDA-MB-231 breast
OVCAR-5 ovarian = system: OVCAR-5 ovarian
OVCAR-4 ovarian = system: OVCAR-4 ovarian
TK-10 renal = system: TK-10 renal
NCI-H522 lung = system: NCI-H522 lung
IGROV1 ovarian = system: IGROV1 ovarian
PC-3 prostate = system: PC-3 prostate
SNB-19 CNS = system: SNB-19 CNS
SF-268 CNS = system: SF-268 CNS
SF-295 CNS = system: SF-295 CNS
A549 NSCLC = system: A549 NSCLC
HOP-92 NSCLC = system: HOP-92 NSCLC
M14 melanoma = system: M14 melanoma
HCT-15 colon = system: HCT-15 colon
UACC-257 melanoma = system: UACC-257 melanoma
BT-549 breast = system: BT-549 breast
MCF7 breast = system: MCF7 breast
CAKI-1 renal = system: CAKI-1 renal
KM12 colon = system: KM12 colon
COLO 205 colon = system: COLO 205 colon
ACHN renal = system: ACHN renal
SNB-75 CNS = system: SNB-75 CNS
SR leukemia = system: SR leukemia
MALME-3M melanoma = system: MALME-3M melanoma
NCI-H226 lung = system: NCI-H226 lung
K-562 leukemia = system: K-562 leukemia
SK-MEL-2 melanoma = system: SK-MEL-2 melanoma
HT29 colon = system: HT29 colon
RXF 393 renal = system: RXF 393 renal
SW-620 colon = system: SW-620 colon
T-47D breast = system: T-47D breast
HL-60(TB) leukemia = system: HL-60(TB) leukemia
MDA-N = system: MDA-N
SN12C renal = system: SN12C renal
NCI/ADR-RES ovarian = system: NCI/ADR-RES ovarian
OVCAR-8 ovarian = system: OVCAR-8 ovarian
MOLT-4 leukemia = system: MOLT-4 leukemia
LOX IMVI melanoma = system: LOX IMVI melanoma
SF-539 CNS = system: SF-539 CNS
HCC-2998 colon = system: HCC-2998 colon
HOP-62 NSCLC = system: HOP-62 NSCLC
HCT-116 colon = system: HCT-116 colon
CCRF-CEM leukemia = system: CCRF-CEM leukemia
U251 CNS = system: U251 CNS
SK-MEL-5 melanoma = system: SK-MEL-5 melanoma
RPMI-8226 leukemia = system: RPMI-8226 leukemia
EKVX NSCLC = system: EKVX NSCLC
UO-31 renal = system: UO-31 renal
DU-145 prostate = system: DU-145 prostate
786-0 renal = system: 786-0 renal
HS 578T breast = system: HS 578T breast
NCI-H23 lung = system: NCI-H23 lung
OVCAR-3 ovarian = system: OVCAR-3 ovarian
A498 renal = system: A498 renal

**Q.** Which results are given for O=C1CN(c2ccccc2)Cc2nc(Cl)ccc2N1?
**A.** TGI (MDA-MB-435): > 100 µM; TGI (SK-OV-3 ovarian): > 100 µM; TGI (SK-MEL-28 melanoma): > 100 µM; TGI (UACC-62 melanoma): > 100 µM; TGI (NCI-H460 lung): > 100 µM; TGI (MDA-MB-231 breast): > 100 µM; TGI (OVCAR-5 ovarian): > 100 µM; TGI (OVCAR-4 ovarian): > 100 µM; TGI (TK-10 renal): > 100 µM; TGI (NCI-H522 lung): > 100 µM; TGI (IGROV1 ovarian): > 100 µM; TGI (PC-3 prostate): > 100 µM; TGI (SNB-19 CNS): > 100 µM; TGI (SF-268 CNS): > 100 µM; TGI (SF-295 CNS): > 100 µM; TGI (A549 NSCLC): > 100 µM; TGI (HOP-92 NSCLC): > 100 µM; TGI (M14 melanoma): > 100 µM; TGI (HCT-15 colon): > 100 µM; TGI (UACC-257 melanoma): > 100 µM; TGI (BT-549 breast): > 100 µM; TGI (MCF7 breast): > 100 µM; TGI (CAKI-1 renal): > 100 µM; TGI (KM12 colon): > 100 µM; TGI (COLO 205 colon): > 100 µM; TGI (ACHN renal): > 100 µM; TGI (SNB-75 CNS): > 100 µM; TGI (SR leukemia): > 100 µM; TGI (MALME-3M melanoma): > 100 µM; TGI (NCI-H226 lung): > 100 µM; TGI (K-562 leukemia): > 100 µM; TGI (SK-MEL-2 melanoma): > 100 µM; TGI (HT29 colon): > 100 µM; TGI (RXF 393 renal): > 100 µM; TGI (SW-620 colon): > 100 µM; TGI (T-47D breast): > 100 µM; TGI (HL-60(TB) leukemia): > 100 µM; TGI (MDA-N): > 100 µM; TGI (SN12C renal): > 100 µM; TGI (NCI/ADR-RES ovarian): > 100 µM; TGI (OVCAR-8 ovarian): > 100 µM; TGI (MOLT-4 leukemia): > 100 µM; TGI (LOX IMVI melanoma): > 100 µM; TGI (SF-539 CNS): > 100 µM; TGI (HCC-2998 colon): > 100 µM; TGI (HOP-62 NSCLC): > 100 µM; TGI (HCT-116 colon): > 100 µM; TGI (CCRF-CEM leukemia): > 100 µM; TGI (U251 CNS): > 100 µM; TGI (SK-MEL-5 melanoma): > 100 µM; TGI (RPMI-8226 leukemia): > 100 µM; TGI (EKVX NSCLC): > 100 µM; TGI (UO-31 renal): > 100 µM; TGI (DU-145 prostate): > 100 µM; TGI (786-0 renal): > 100 µM; TGI (HS 578T breast): > 100 µM

**Q.** With Nc1nc(Nc2ccc(Cl)c(Cl)c2)nc2nc[nH]c12 as the compound, how does the TGI (MDA-MB-435) read?
**A.** 32 µM

**Q.** And the TGI (SK-OV-3 ovarian)?
**A.** 31.8 µM

**Q.** What about the TGI (UACC-62 melanoma) of the same compound?
**A.** 29 µM

**Q.** What about the TGI (NCI-H460 lung) of the same compound?
**A.** 34 µM

**Q.** And the TGI (MDA-MB-231 breast)?
**A.** 31.3 µM

**Q.** What about the TGI (OVCAR-5 ovarian) of the same compound?
**A.** 75.3 µM

**Q.** And the TGI (OVCAR-4 ovarian)?
**A.** 48.4 µM

**Q.** What about the TGI (TK-10 renal) of the same compound?
**A.** 28.3 µM

**Q.** And the TGI (NCI-H522 lung)?
**A.** 29.3 µM

**Q.** What about the TGI (IGROV1 ovarian) of the same compound?
**A.** 27 µM

**Q.** And the TGI (PC-3 prostate)?
**A.** 41.2 µM

**Q.** What about the TGI (SNB-19 CNS) of the same compound?
**A.** 32 µM

**Q.** And the TGI (SF-268 CNS)?
**A.** 22.9 µM

**Q.** And the TGI (SF-295 CNS)?
**A.** 35.7 µM

**Q.** And the TGI (A549 NSCLC)?
**A.** 33.6 µM

**Q.** What about the TGI (HOP-92 NSCLC) of the same compound?
**A.** 33.5 µM

**Q.** What about the TGI (M14 melanoma) of the same compound?
**A.** 29.8 µM

**Q.** And the TGI (HCT-15 colon)?
**A.** 37.2 µM

**Q.** What about the TGI (UACC-257 melanoma) of the same compound?
**A.** 32.7 µM

**Q.** What about the TGI (BT-549 breast) of the same compound?
**A.** 25.8 µM

**Q.** And the TGI (MCF7 breast)?
**A.** 45.6 µM

**Q.** And the TGI (CAKI-1 renal)?
**A.** 25.1 µM

**Q.** And the TGI (KM12 colon)?
**A.** 28.6 µM

**Q.** What about the TGI (COLO 205 colon) of the same compound?
**A.** 44.3 µM

**Q.** What about the TGI (NCI-H23 lung) of the same compound?
**A.** 34.9 µM

**Q.** And the TGI (ACHN renal)?
**A.** 25.2 µM

**Q.** What about the TGI (SNB-75 CNS) of the same compound?
**A.** 20.9 µM

**Q.** What about the TGI (OVCAR-3 ovarian) of the same compound?
**A.** 27 µM

**Q.** And the TGI (SR leukemia)?
**A.** 33.2 µM

**Q.** And the TGI (MALME-3M melanoma)?
**A.** 32.5 µM

**Q.** What about the TGI (NCI-H226 lung) of the same compound?
**A.** 50.2 µM

**Q.** What about the TGI (K-562 leukemia) of the same compound?
**A.** 47.4 µM

**Q.** And the TGI (SK-MEL-2 melanoma)?
**A.** 39.2 µM

**Q.** What about the TGI (HT29 colon) of the same compound?
**A.** 30.6 µM

**Q.** And the TGI (RXF 393 renal)?
**A.** 20.1 µM

**Q.** And the TGI (SW-620 colon)?
**A.** 41.6 µM

**Q.** What about the TGI (T-47D breast) of the same compound?
**A.** 25.1 µM

**Q.** And the TGI (HL-60(TB) leukemia)?
**A.** 31.9 µM

**Q.** What about the TGI (MDA-N) of the same compound?
**A.** 33.5 µM

**Q.** And the TGI (SN12C renal)?
**A.** 44.6 µM

**Q.** And the TGI (NCI/ADR-RES ovarian)?
**A.** 38.3 µM

**Q.** What about the TGI (OVCAR-8 ovarian) of the same compound?
**A.** 28 µM

**Q.** What about the TGI (MOLT-4 leukemia) of the same compound?
**A.** 39.2 µM

**Q.** What about the TGI (LOX IMVI melanoma) of the same compound?
**A.** 36.9 µM

**Q.** What about the TGI (SF-539 CNS) of the same compound?
**A.** 26.7 µM

**Q.** What about the TGI (HCC-2998 colon) of the same compound?
**A.** 27.9 µM

**Q.** And the TGI (HOP-62 NSCLC)?
**A.** 26.1 µM

**Q.** What about the TGI (HCT-116 colon) of the same compound?
**A.** 34.1 µM

**Q.** And the TGI (CCRF-CEM leukemia)?
**A.** 41 µM

**Q.** What about the TGI (U251 CNS) of the same compound?
**A.** 36.5 µM

**Q.** And the TGI (SK-MEL-5 melanoma)?
**A.** 27.7 µM

**Q.** And the TGI (A498 renal)?
**A.** 21.7 µM

**Q.** And the TGI (RPMI-8226 leukemia)?
**A.** 62.8 µM

**Q.** And the TGI (EKVX NSCLC)?
**A.** 18.8 µM

**Q.** And the TGI (UO-31 renal)?
**A.** 21.3 µM

**Q.** What about the TGI (DU-145 prostate) of the same compound?
**A.** 21.6 µM

**Q.** And the TGI (786-0 renal)?
**A.** 31.3 µM

**Q.** What about the TGI (HS 578T breast) of the same compound?
**A.** 20.2 µM
